Values after ≈ are worked out from the molar mass of the structure shown.
What was measured:
Assay type in all cases: cell-based
[1] = test system: Enterococcus faecalis #28 (KI, Clinical Isolate); experiment: Minimum inhibitory concentration (MIC), visible growth
Procedure: (§1) • 1. Using a sterile inoculating loop, transfer bacteria/Candida albicans from frozen stock culture and streak them on a fresh LA plate. • 2. Incubate the plate at 37° C. overnight (o/n) (18-24 h).
(§2) • 1. Prepare bacterial culture by adding 20 ml Mueller Hinton broth (*) to a 250-ml Erlenmeyer flask with sidearm. • 2. Using a sterile inoculating loop, pick approximately 10 colonies from the o/n bacterial culture and transfer bacteria to the flask. • 3. Incubate the E-flask with bacteria on a rotating shaker at 37° C. until OD590=0.40. This OD should equal an approximate bacterial count of 1×10^8 cfu/ml (**) • This is measured using a colorimeter (or spectrophotometer). Set reference and press R (=reference) first, then measure the bacterial culture by pressing T (=test). • 4. At OD590 0.40, serially dilute the bacterial suspension 1:10 000 in Mueller Hinton broth to obtain a bacterial target concentration of 1×10^4 cfu/ml. Determine the initial inoculation by serially diluting 0.1 ml in 0.9 ml blanks of sterile PBS and plating 0.1 ml aliquots to LA plates, preferably. • 5. Different concentrations of the tested compound are prepared in 0.6-0.8 ml of the final dilution of bacterial suspension and placed in 2-ml test tubes. • 6. Incubate test tubes in an orbital shaker incubator at 37° C. for 24 h.
(§3) • 7. Analyze visible growth, i.e. “Foggy” or “Clear”. MIC is being defined as the interval between the highest “Foggy” and the lowest “Clear” concentration of the compound.
(§4) Different concentrations of PDEA (Example 1) in Mueller Hinton medium were prepared. Bacteria were inoculated to a concentration of 20 000 CFU/ml and incubated at 37° C. for 24 hours. Minimum inhibitory concentrations (MICs) were determined by analyzing visible growth, i.e., readouts were “Clear” and “Foggy”.
(§5) Different concentrations of the quaternary ammonium PDEA (Example 2) in Mueller Hinton medium were prepared. Bacteria were inoculated to a concentration of 20 000 CFU/ml and incubated at 37° C. for 24 hours. Minimum inhibitory concentrations (MICs) were determined by analyzing visible growth, i.e., readouts were “Clear” and “Foggy”.
(§6) Different concentrations of this compound in Mueller Hinton medium were prepared. Bacteria were inoculated to a concentration of 20 000 CFU/ml and incubated at 37° C. for 24 hours. Minimum inhibitory concentrations (MICs) were determined by analyzing visible growth, i.e., readouts were “Clear” and “Foggy”.
(§7) Different concentrations of this compound were prepared in Mueller Hinton broth. Bacteria were inoculated to a concentration of 20 000 CFU/ml and incubated at 37° C. for 24 hours. Minimum inhibitory concentrations (MICs) were determined by analyzing visible growth, i.e., readouts were “Clear” and “Foggy”.

[2] = test system: Enterococcus faecium #11 (KI, Clinical Isolate); experiment: as above
Procedure: as §1, §2, §3, §4, §5, §6, §7

Escherichia coli CFT073 = experiment: as above
Procedure: as §1, §2, §3, §4, §5, §6, §7

[3] = test system: Klebsiella pneumoniae AO15200; experiment: as above
Procedure: as §1, §2, §3, §4, §5, §6, §7

[4] = test system: Pseudomonas aeruginosa PA02; experiment: as above
Procedure: as §1, §2, §3, §4, §5, §6, §7

[5] = test system: Staphylococcus aureus B5381; experiment: as above
Procedure: as §1, §2, §3, §4, §5, §6, §7

[6] = test system: Staphylococcus epidermidis Se19 (Clinical Isolate, Jan Ingemar Falk); experiment: as above
Procedure: as §1, §2, §3, §4, §5, §6, §7

Candida albicans = experiment: Minimum inhibitory concentration (MIC), visible growth, YPD broth
Procedure: as §1, §2, §3
(*) When testing Candida albicans, Yeast extract Peptone Dextrose (YPD) broth is being used.
(**) For Candida albicans it is equal to 1×10^7
Different concentrations of PDEA were also prepared in Yeast extract Peptone Dextrose (YPD) broth. Candida albicans were inoculated to a concentration of 20 000 CFU/ml and incubated at 37° C. for 24 hours. Readouts were “Clear” and “Foggy”.
Different concentrations of the quaternary ammonium PDEA (Example 2) were also prepared in Yeast extract Peptone Dextrose (YPD) broth. Candida albicans were inoculated to a concentration of 20 000 CFU/ml and incubated at 37° C. for 24 hours. Readouts were “Clear” and “Foggy”.
Different concentrations of the Para position-PDEA” is (S)-4-pyridylthio cysteamine were also prepared in Yeast extract Peptone Dextrose (YPD) broth. Candida albicans were inoculated to a concentration of 20 000 CFU/ml and incubated at 37° C. for 24 hours. Readouts were “Clear” and “Foggy”.
Different concentrations of “Carboxylic acid PDEA” is 3-(2-Pyridyldithio)propanoic acid (CAS: 68617-64-1) were also prepared in Yeast extract Peptone Dextrose (YPD) broth. Candida albicans were inoculated to a concentration of 20 000 CFU/ml and incubated at 37° C. for 24 hours. Readouts were “Clear” and “Foggy”.

E. coli = experiment: Combination therapy: Gentamycin with PDEA, visible growth; conditions: No PDEA
Procedure: (§8) Different concentrations of Gentamycin in Mueller Hinton were prepared in 3 different concentrations of PDEA. E. coli and S. aureus were inoculated (10^5) and were incubated O/N.
(§9) Readouts were “Clear” and “Foggy”.

S. aureus = experiment: as above; conditions: No PDEA
Procedure: as §8, §9

With `O=C(O)CCSSc1ccccn1` [Example 4, 3-(2-Pyridyldithio)propanoic acid] the visible growth readout ([1]; 0.05 mM) was “Foggy”, the visible growth readout ([1]; 0.1 mM) was “Foggy” and the visible growth readout ([1]; 0.25 mM) was “Foggy”. The visible growth readout ([1]; 0.5 mM) was “Clear”, the visible growth readout ([1]; 1 mM) was “Clear” and the visible growth readout ([1]; 2 mM) was “Clear”. The visible growth readout ([1]; 4 mM) was “Clear”, the MIC ([1]; Enterococcus faecalis, Mueller Hinton, 20 000 CFU/ml, 37° C., 24 hours, read-out: MIC) was 250 to 500 µM (≈ 53.8 to 108 µg/mL) and the visible growth readout ([2]; 0.05 mM) was “Foggy”. The visible growth readout ([2]; 0.1 mM) was “Foggy”, the visible growth readout ([2]; 0.25 mM) was “Clear” and the visible growth readout ([2]; 0.5 mM) was “Clear”. The visible growth readout ([2]; 1 mM) was “Clear”, the visible growth readout ([2]; 2 mM) was “Clear” and the visible growth readout ([2]; 4 mM) was “Clear”. For the same molecule, the MIC ([2]; Enterococcus faecium, Mueller Hinton, 20 000 CFU/ml, 37° C., 24 hours, read-out: MIC) was 100 to 250 µM (≈ 21.5 to 53.8 µg/mL), the visible growth readout (Escherichia coli CFT073; 0.05 mM) was “Foggy” and the visible growth readout (Escherichia coli CFT073; 0.1 mM) was “Foggy”. The visible growth readout (Escherichia coli CFT073; 0.25 mM) was “Foggy”, the visible growth readout (Escherichia coli CFT073; 0.5 mM) was “Foggy” and the visible growth readout (Escherichia coli CFT073; 1 mM) was “Foggy”. For the same molecule, the visible growth readout (Escherichia coli CFT073; 2 mM) was “Foggy”, the visible growth readout (Escherichia coli CFT073; 4 mM) was “Clear” and the MIC (Escherichia coli CFT073; Escherichia coli, CFT073, Mueller Hinton, 20 000 CFU/ml, 37° C., 24 hours, read-out: MIC) was 2000 to 4000 µM (≈ 431 to 861 µg/mL). The visible growth readout ([3]; 0.05 mM) was “Foggy”, the visible growth readout ([3]; 0.1 mM) was “Foggy” and the visible growth readout ([3]; 0.25 mM) was “Foggy”. The visible growth readout ([3]; 0.5 mM) was “Foggy”, the visible growth readout ([3]; 0.8 mM (second series)) was “Foggy” and the visible growth readout ([3]; 1 mM) was “Foggy”. For the same molecule, the visible growth readout ([3]; 2 mM) was “Foggy”, the visible growth readout ([3]; 3.2 mM (second series)) was “Foggy” and the visible growth readout ([3]; 4 mM) was “Foggy”. The visible growth readout ([3]; 6.4 mM (second series)) was “Clear”, the visible growth readout ([3]; 12.8 mM (second series)) was “Clear” and the visible growth readout ([3]; 0.1.6 mM (second series)) was “Foggy”. The MIC ([3]; Klebsiella pneumoniae, AO15200, Mueller Hinton, 20 000 CFU/ml, 37° C., 24 hours, read-out: MIC) was 3200 to 6400 µM (≈ 689 to 1380 µg/mL), the visible growth readout ([4]; 0.05 mM) was “Foggy” and the visible growth readout ([4]; 0.1 mM) was “Foggy”. For the same molecule, the visible growth readout ([4]; 0.25 mM) was “Foggy”, the visible growth readout ([4]; 0.5 mM) was “Foggy” and the visible growth readout ([4]; 0.8 mM (second series)) was “Foggy”. The visible growth readout ([4]; 1 mM) was “Foggy”, the visible growth readout ([4]; 2 mM) was “Foggy” and the visible growth readout ([4]; 3.2 mM (second series)) was “Foggy”. For the same molecule, the visible growth readout ([4]; 4 mM) was “Foggy”, the visible growth readout ([4]; 6.4 mM (second series)) was “Foggy” and the visible growth readout ([4]; 12.8 mM (second series)) was “Clear”. The visible growth readout ([4]; 0.1.6 mM (second series)) was “Foggy”, the MIC ([4]; Pseudomonas aeruginosa, PA02, Mueller Hinton, 20 000 CFU/ml, 37° C., 24 hours, read-out: MIC) was 6400 to 12800 µM (≈ 1380 to 2760 µg/mL) and the visible growth readout ([5]; 0.05 mM) was “Foggy”. For the same molecule, the visible growth readout ([5]; 0.1 mM) was “Foggy”, the visible growth readout ([5]; 0.25 mM) was “Foggy” and the visible growth readout ([5]; 0.5 mM) was “Foggy”. The visible growth readout ([5]; 1 mM) was “Clear”, the visible growth readout ([5]; 2 mM) was “Clear” and the visible growth readout ([5]; 4 mM) was “Clear”. For the same molecule, the visible growth readout ([6]; 0.05 mM) was “Foggy”, the visible growth readout ([6]; 0.1 mM) was “Foggy” and the visible growth readout ([6]; 0.25 mM) was “Clear”. The visible growth readout ([6]; 0.5 mM) was “Clear”, the visible growth readout ([6]; 1 mM) was “Clear” and the visible growth readout ([6]; 2 mM) was “Clear”. The visible growth readout ([6]; 4 mM) was “Clear”, the MIC ([6]; Staphylococcus epidermidis, Mueller Hinton, 20 000 CFU/ml, 37° C., 24 hours, read-out: MIC) was 100 to 250 µM (≈ 21.5 to 53.8 µg/mL) and the visible growth readout (Candida albicans; 0.05 mM) was “Foggy”. The visible growth readout (Candida albicans; 0.1 mM) was “Foggy”, the visible growth readout (Candida albicans; 0.25 mM) was “Foggy” and the visible growth readout (Candida albicans; 0.5 mM) was “Foggy”. The visible growth readout (Candida albicans; 1 mM) was “Foggy”, the visible growth readout (Candida albicans; 2 mM) was “Clear” and the visible growth readout (Candida albicans; 4 mM) was “Clear”. The MIC (Candida albicans; Candida albicans, YPD broth, 20 000 CFU/ml, 37° C., 24 hours, read-out: MIC) was 1000 to 2000 µM (≈ 215 to 431 µg/mL).

For Gentamycin, the “Visible growth readout (Clear/Foggy)” value (E. coli; Gentamycin 0.0156 μg/ml) was “Foggy”, the “Visible growth readout (Clear/Foggy)” value (E. coli; Gentamycin 0.03125 μg/ml) was “Foggy” and the “Visible growth readout (Clear/Foggy)” value (E. coli; Gentamycin 0.0625 μg/ml) was “Foggy”. The “Visible growth readout (Clear/Foggy)” value (E. coli; Gentamycin 0.125 μg/ml) was “Foggy”, the “Visible growth readout (Clear/Foggy)” value (E. coli; Gentamycin 0.25 μg/ml) was “Foggy” and the “Visible growth readout (Clear/Foggy)” value (E. coli; Gentamycin 0.5 μg/ml) was “Foggy”. The “Visible growth readout (Clear/Foggy)” value (E. coli; Gentamycin 1 μg/ml) was “Clear”, the “Visible growth readout (Clear/Foggy)” value (E. coli; Gentamycin 2 μg/ml) was “Clear” and the “Visible growth readout (Clear/Foggy)” value (E. coli; Gentamycin 4 μg/ml) was “Clear”. For the same molecule, the “Visible growth readout (Clear/Foggy)” value (E. coli; Gentamycin 8 μg/ml) was “Clear”, the “Visible growth readout (Clear/Foggy)” value (E. coli; Gentamycin 16 μg/ml) was “Clear” and the “Visible growth readout (Clear/Foggy)” value (E. coli; Gentamycin 32 μg/ml) was “Clear”. For the same molecule, the “Visible growth readout (Clear/Foggy)” value (E. coli; Gentamycin 64 μg/ml) was “Clear”, the “Visible growth readout (Clear/Foggy)” value (E. coli; Gentamycin 128 μg/ml) was “Clear” and the “Visible growth readout (Clear/Foggy)” value (E. coli; Gentamycin 256 μg/ml) was “Clear”. The “Visible growth readout (Clear/Foggy)” value (S. aureus; Gentamycin 0.0156 μg/ml) was “Foggy”, the “Visible growth readout (Clear/Foggy)” value (S. aureus; Gentamycin 0.03125 μg/ml) was “Foggy” and the “Visible growth readout (Clear/Foggy)” value (S. aureus; Gentamycin 0.0625 μg/ml) was “Foggy”. For the same molecule, the “Visible growth readout (Clear/Foggy)” value (S. aureus; Gentamycin 0.125 μg/ml) was “Foggy”, the “Visible growth readout (Clear/Foggy)” value (S. aureus; Gentamycin 0.25 μg/ml) was “Clear” and the “Visible growth readout (Clear/Foggy)” value (S. aureus; Gentamycin 0.5 μg/ml) was “Clear”. The “Visible growth readout (Clear/Foggy)” value (S. aureus; Gentamycin 1 μg/ml) was “Clear”, the “Visible growth readout (Clear/Foggy)” value (S. aureus; Gentamycin 2 μg/ml) was “Clear” and the “Visible growth readout (Clear/Foggy)” value (S. aureus; Gentamycin 4 μg/ml) was “Clear”. For the same molecule, the “Visible growth readout (Clear/Foggy)” value (S. aureus; Gentamycin 8 μg/ml) was “Clear”, the “Visible growth readout (Clear/Foggy)” value (S. aureus; Gentamycin 16 μg/ml) was “Clear” and the “Visible growth readout (Clear/Foggy)” value (S. aureus; Gentamycin 32 μg/ml) was “Clear”. For the same molecule, the “Visible growth readout (Clear/Foggy)” value (S. aureus; Gentamycin 64 μg/ml) was “Clear”, the “Visible growth readout (Clear/Foggy)” value (S. aureus; Gentamycin 128 μg/ml) was “Clear” and the “Visible growth readout (Clear/Foggy)” value (S. aureus; Gentamycin 256 μg/ml) was “Clear”.
